Where two headings read alike, the source gives them in different places.
Assays:
[1] = Apparent elimination half-life (HLapp) and phlebotomy efficiency coefficient in treated family members; type: in vivo, human; settings: family members with regular phlebotomy, except parent
Source text: To evaluate the effect of phlebotomy, versus the expected rate of intrinsic elimination, we graphically and statistically compared the observed decreasing trends in each family member (fitted to a simple exponential decay model) with reference population elimination kinetics. Specifically, for the reference population of occupationally exposed retirees, we considered: i) the 95% confidence interval of the geometric mean elimination rate for each PFAA, and ii) the fastest individual rate of elimination rate among the reference population. For comparative purposes, the concentration of each PFAA in serum on the first day of the intervention was taken as time zero, and the models were forced through this starting point.
One metric that was calculated to compare the efficiency of the phlebotomy for removal of different PFAAs in each family member was termed the phlebotomy efficiency coefficient (EC). This was based on the subtractive difference between HLapp (yrs) in each treated family member and the geometric mean HLin (yrs) of the reference population according to Equation 1 . [drawing 1] (1)

[2] = design: method as in earlier work; settings: 2009–2011; cited from earlier work
[3] = Serum PFAA concentrations in family members during intermittent phlebotomy (HPLC-MS/MS); type: in vivo, human; settings: for Serum concentration before treatment: before phlebotomy
Source text: After receiving informed consent, intermittent phlebotomy was undertaken at an overall rate (Table 2) that was equal to or less than the maximum rate of what is done for routine blood donations at the Canadian Blood Services: ∼500 ccs of whole blood every 56 days. Frequency and timing of blood removal was not consistent between family members because of their personal availability, success at each time of venesection, and compliance of each participant. […] Mineral supplementation was discussed and was taken by each participant.
All serum samples were submitted to ALS Laboratories (Edmonton, AB) for quantitative analysis of PFAAs (see Supporting Information, S1 Table). Samples were extracted by solid phase extraction and concentrations of PFHxS, PFOS, and PFOA were determined using high performance liquid chromatography/tandem mass spectrometry. Formic acid (0.1 M) along with a mixture of isotopically labeled PFAAs (Wellington Laboratories, Guelph, Ontario) were added to 1.0 mL of serum. The mixture was vortexed, sonicated, and subjected to solid phase extraction. The extract was concentrated to 100 uL and an instrument performance internal standard was added along with 200 uL of 90% 20 mM aqueous acetic acid/10% methanol. Procedural blanks were run with each set of samples, and method limits of quantification (LOQ) were 0.5 ng/mL for each analyte. For the few PFAA levels that fell below this LOQ (shown as hollow circles in Figs. 1–3), LOQ/√2 (i.e. 0.35 ng/mL) was substituted for purposes of data analysis. PFHxS, PFOS, and PFOA levels in all participating family members were >LOQ throughout the intervention except for 3 PFOS measurements out of 16 total measurements in the 3rd child and one PFOA measurement out of 9 total measurements in the […]. Written informed consent was given by participants (or parents in the case of children) for their clinical records to be used in this study.

[4] = design: method as in PMID 17805419; settings: cited from earlier work
[5] = design: method as in PMID 23980546; settings: urinary excretion, China, cited from earlier work

O=S(=O)(O)C(F)(F)C(F)(F)C(F)(F)C(F)(F)C(F)(F)C(F)(F)F [PFHxS, Perfluorohexane sulfonate]
HLapp compared with geometric mean HLin of reference population [1]: significantly shorter | 95th percentile of serum concentration among Canadians [2]: 8.9 ng/mL | Serum concentration before treatment ([3]; 1st Child): 78.6 ng/mL | Serum concentration ([3]; 1st Child, sampling date 2009.10.12): 51.9 ng/mL | Serum concentration ([3]; 1st Child, sampling date 2009.12.24): 40.5 ng/mL | Serum concentration ([3]; 1st Child, sampling date 2009.6.9): 78.6 ng/mL | Serum concentration ([3]; 1st Child, sampling date 2009.9.9): 39.0 ng/mL | Serum concentration ([3]; 1st Child, sampling date 2010.10.14): 51.9 ng/mL | Serum concentration ([3]; 1st Child, sampling date 2010.1.17): 30.3 ng/mL | Serum concentration ([3]; 1st Child, sampling date 2010.2.11): 25.3 ng/mL | Serum concentration ([3]; 1st Child, sampling date 2010.4.14): 29.9 ng/mL | Serum concentration ([3]; 1st Child, sampling date 2011.12.5): 10.0 ng/mL | Serum concentration ([3]; 1st Child, sampling date 2011.5.17, LOD=0.5ng/mL): 31.8 ng/mL | Serum concentration ([3]; 1st Child, sampling date 2011.8.12, LOD=0.5ng/mL): 27.8 ng/mL | Serum concentration ([3]; 1st Child, sampling date 2012.12.28, LOD=0.5ng/mL): 21.7 ng/mL | Serum concentration ([3]; 1st Child, sampling date 2012.4.24): 32.7 ng/mL | Serum concentration ([3]; 1st Child, sampling date 2012.8.21): 25.1 ng/mL | Serum concentration ([3]; 1st Child, sampling date 2013.3.30): 18.1 ng/mL | Serum concentration ([3]; 1st Child, sampling date 2013.7.30): 11.9 ng/mL | Serum concentration before treatment ([3]; 2nd Child): 140 ng/mL | Serum concentration ([3]; 2nd Child, sampling date 2009.10.24): 97.5 ng/mL | Serum concentration ([3]; 2nd Child, sampling date 2009.6.6): 140.0 ng/mL | Serum concentration ([3]; 2nd Child, sampling date 2009.7.2): 124.0 ng/mL | Serum concentration ([3]; 2nd Child, sampling date 2009.7.30): 132.0 ng/mL | Serum concentration ([3]; 2nd Child, sampling date 2009.8.24): 162.0 ng/mL | Serum concentration ([3]; 2nd Child, sampling date 2009.9.27): 67.2 ng/mL | Serum concentration ([3]; 2nd Child, sampling date 2010.1.3): 57.9 ng/mL | Serum concentration ([3]; 2nd Child, sampling date 2010.2.15): 44.7 ng/mL | Serum concentration ([3]; 2nd Child, sampling date 2011.10.2): 47.4 ng/mL | Serum concentration ([3]; 2nd Child, sampling date 2011.12.24): 43.2 ng/mL | Serum concentration ([3]; 2nd Child, sampling date 2011.4.27): 72.3 ng/mL | Serum concentration ([3]; 2nd Child, sampling date 2011.8.14): 63.0 ng/mL | Serum concentration ([3]; 2nd Child, sampling date 2012.12.24): 78.7 ng/mL | Serum concentration ([3]; 2nd Child, sampling date 2012.4.6): 48.3 ng/mL | Serum concentration ([3]; 2nd Child, sampling date 2013.5.11.): 34.8 ng/mL | Serum concentration ([3]; 2nd Child, sampling date 2013.7.15): 27.1 ng/mL | Serum concentration before treatment ([3]; 3rd Child): 293 ng/mL | Serum concentration ([3]; 3rd Child, sampling date 2010.3.12): 168.0 ng/mL | Serum concentration ([3]; 3rd Child, sampling date 2010.5.23): 85.2 ng/mL | Serum concentration ([3]; 3rd Child, sampling date 2011.1.6): 98.7 ng/mL | Serum concentration ([3]; 3rd Child, sampling date 2011.11.26): 31.2 ng/mL | Serum concentration ([3]; 3rd Child, sampling date 2011.2.24): 114.0 ng/mL | Serum concentration ([3]; 3rd Child, sampling date 2011.4.30): 82.8 ng/mL | Serum concentration ([3]; 3rd Child, sampling date 2011.6.13): 92.0 ng/mL | Serum concentration ([3]; 3rd Child, sampling date 2011.9.27): 108.0 ng/mL | Serum concentration ([3]; 3rd Child, sampling date 2012.10.16): 63.9 ng/mL | Serum concentration ([3]; 3rd Child, sampling date 2012.1.8): 51.0 ng/mL | Serum concentration ([3]; 3rd Child, sampling date 2012.12.9): 95.4 ng/mL | Serum concentration ([3]; 3rd Child, sampling date 2012.3.4): 61.5 ng/mL | Serum concentration ([3]; 3rd Child, sampling date 2012.4.28): 110.0 ng/mL | Serum concentration before treatment ([3]; 4th Child): 167 ng/mL | starting serum concentration relative to 95th centile among Canadians ([3]; 4th child (4th child)): ~20 fold | Serum concentration after treatment ([3]; Average of 6 family members, after phlebotomy): 23.3 ng/mL | Serum concentration before treatment ([3]; Average of 6 family members): 125 ng/mL | Serum concentration before treatment ([3]; Parent one): 44.1 ng/mL | Serum concentration ([3]; Parent one, sampling date 2009.10.11): 20.3 ng/mL | Serum concentration ([3]; Parent one, sampling date 2009.10.12): 25.0 ng/mL | Serum concentration ([3]; Parent one, sampling date 2009.11.12): 29.5 ng/mL | Serum concentration ([3]; Parent one, sampling date 2009.12.14): 35.4 ng/mL | Serum concentration ([3]; Parent one, sampling date 2009.2.2): 44.1 ng/mL | Serum concentration ([3]; Parent one, sampling date 2009.5.18): 35.0 ng/mL | Serum concentration ([3]; Parent one, sampling date 2009.6.1): 41.7 ng/mL | Serum concentration ([3]; Parent one, sampling date 2009.7.4): 26.8 ng/mL | Serum concentration ([3]; Parent one, sampling date 2009.9.1): 43.5 ng/mL | Serum concentration ([3]; Parent one, sampling date 2010.10.10): 22.4 ng/mL | Serum concentration ([3]; Parent one, sampling date 2010.1.17): 34.5 ng/mL | Serum concentration ([3]; Parent one, sampling date 2010.3.13): 21.2 ng/mL | Serum concentration ([3]; Parent one, sampling date 2011.1.6): 19.2 ng/mL | Serum concentration ([3]; Parent one, sampling date 2011.11.26): 8.7 ng/mL | Serum concentration ([3]; Parent one, sampling date 2011.2.24): 13.1 ng/mL | Serum concentration ([3]; Parent one, sampling date 2011.4.30): 18.8 ng/mL | Serum concentration ([3]; Parent one, sampling date 2011.6.22): 16.9 ng/mL | Serum concentration ([3]; Parent one, sampling date 2011.8.4): 18.0 ng/mL | Serum concentration ([3]; Parent one, sampling date 2011.9.27): 25.7 ng/mL | Serum concentration ([3]; Parent one, sampling date 2012..12.28): 17.4 ng/mL | Serum concentration ([3]; Parent one, sampling date 2012.1.14): 21.5 ng/mL | Serum concentration ([3]; Parent one, sampling date 2012.11.1): 19.1 ng/mL | Serum concentration ([3]; Parent one, sampling date 2012.3.4): 19.5 ng/mL | Serum concentration ([3]; Parent one, sampling date 2012.4.29): 23.1 ng/mL | Serum concentration ([3]; Parent one, sampling date 2012.7.8): 18.3 ng/mL | Serum concentration ([3]; Parent one, sampling date 2012.8.21): 21.7 ng/mL | Serum concentration ([3]; Parent one, sampling date 2013.10.27): 8.8 ng/mL | Serum concentration ([3]; Parent one, sampling date 2013.2.18): 15.7 ng/mL | Serum concentration ([3]; Parent one, sampling date 2013.3.30): 16.0 ng/mL | Serum concentration ([3]; Parent one, sampling date 2013.5.11): 13.1 ng/mL | Serum concentration ([3]; Parent one, sampling date 2013.7.15): 7.8 ng/mL | Serum concentration ([3]; Parent one, sampling date 2013.9.8): 18.2 ng/mL | Serum concentration before treatment ([3]; Parent two): 29.3 ng/mL | Serum concentration ([3]; Parent two, sampling date 2009.6.1): 29.3 ng/mL | Serum concentration ([3]; Parent two, sampling date 2009.7.7): 21.3 ng/mL | Serum concentration ([3]; Parent two, sampling date 2009.8.24): 19.5 ng/mL | Serum concentration ([3]; Parent two, sampling date 2010.1.3): 16.3 ng/mL | Serum concentration ([3]; Parent two, sampling date 2010.4.11, LOD=0.5ng/mL): 17.8 ng/mL | Serum concentration ([3]; Parent two, sampling date 2012.3.13): 16.1 ng/mL | Serum concentration ([3]; Parent two, sampling date 2013.1.1): 13.2 ng/mL | Serum concentration ([3]; Parent two, sampling date 2013.10.6): 13.5 ng/mL | Serum concentration ([3]; Parent two, sampling date 2013.6.22): 9.1 ng/mL | HLin of fastest eliminator in the reference population ([4]; reference population of occupationally exposed retirees (26 individuals)): 2.2 yrs | 95% confidence interval of the geometric mean HLin ([4]; reference population of occupationally exposed retirees): 5.8–9.2 yrs | intrinsic human elimination half-life (HLin) ([4]; serum, highly contaminated retirees >55 yrs, previously occupationally exposed): 8.5 years | HLin, 95% confidence interval ([4]; serum, retirees >55 yrs, previously occupationally exposed): 6.4–10.6 yrs | HLapp ([5]; males and post-menopausal females): 35 years | HLapp ([5]; reproductive-aged females): 7.7 years
